Consider 18 compounds from ChEMBL document CHEMBL1833869, “Effect of lipophilicity modulation on inhibition of human rhinovirus capsid binders” (Bioorg Med Chem Lett, 2011).

In brackets after ≈: the same amount, converted by molar mass.

Data set [1] has as its target T1, Nuclear receptor subfamily 1 group I member 2 (Homo sapiens, UniProt O75469).
T1 sequence (O75469 whole entry): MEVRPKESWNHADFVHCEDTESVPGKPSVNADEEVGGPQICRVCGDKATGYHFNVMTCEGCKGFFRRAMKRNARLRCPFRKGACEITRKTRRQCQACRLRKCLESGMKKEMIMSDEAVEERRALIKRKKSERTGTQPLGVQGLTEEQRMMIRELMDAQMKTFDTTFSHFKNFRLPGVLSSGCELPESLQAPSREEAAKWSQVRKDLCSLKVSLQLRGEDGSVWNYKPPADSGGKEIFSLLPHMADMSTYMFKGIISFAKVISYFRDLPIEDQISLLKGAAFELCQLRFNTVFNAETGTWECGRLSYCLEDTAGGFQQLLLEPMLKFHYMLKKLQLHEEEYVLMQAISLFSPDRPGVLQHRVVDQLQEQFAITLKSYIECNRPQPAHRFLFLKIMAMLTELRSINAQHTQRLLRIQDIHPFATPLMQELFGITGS
The data set is described as follows: Activation of human PXR expressed in african green monkey CV1 cells transfected with pSG5-hPXRDATG and (ER6)3-tk-CAT reporter. It is filed as cell-based, CV-1.

Data set [2] is described as follows: Intrinsic clearance in human microsomes after 45 mins by HPLC method. It is filed as ADME, Microsome.
Data set [3] can be described thus: Intrinsic clearance in Sprague-Dawley rat hepatocytes assessed per 10^6 cells preincubated for 5 mins measured after 90 mins. It is filed as ADME, cell-based, Liver, Hepatocyte.
Data set [4] in a line: Volume of distribution at steady state in rat at 2 mg/kg, iv. Further details: dose 2 mg/kg, route intravenous. It is filed as ADME, organism-based. As to conditions: in vivo, read-out: Vdss.
Data set [5] deals with T2, Cytochrome P450 2D6 (Homo sapiens, UniProt P10635). Nature of the data set: Inhibition of CYP2D6. The class given is ADME.
T2 sequence (P10635 whole entry): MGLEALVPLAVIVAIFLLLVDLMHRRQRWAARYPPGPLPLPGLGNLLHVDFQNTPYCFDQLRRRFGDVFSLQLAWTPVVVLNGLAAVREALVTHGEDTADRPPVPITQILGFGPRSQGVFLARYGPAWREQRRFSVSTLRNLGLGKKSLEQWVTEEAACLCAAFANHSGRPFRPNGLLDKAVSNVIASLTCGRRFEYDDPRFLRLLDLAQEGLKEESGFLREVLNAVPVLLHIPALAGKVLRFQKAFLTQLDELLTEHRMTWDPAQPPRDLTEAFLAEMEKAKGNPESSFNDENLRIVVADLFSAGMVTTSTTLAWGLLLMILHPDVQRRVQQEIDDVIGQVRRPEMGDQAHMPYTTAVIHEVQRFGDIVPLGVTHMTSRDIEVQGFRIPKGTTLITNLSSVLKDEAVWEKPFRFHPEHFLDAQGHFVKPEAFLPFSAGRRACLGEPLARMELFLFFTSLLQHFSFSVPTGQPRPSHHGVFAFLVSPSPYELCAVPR
The target of data set [6] is T3, Cytochrome P450 3A4 (Homo sapiens, UniProt P08684). Nature of the data set: Inhibition of CYP3A4. It is filed as ADME.
T3 sequence (P08684 whole entry): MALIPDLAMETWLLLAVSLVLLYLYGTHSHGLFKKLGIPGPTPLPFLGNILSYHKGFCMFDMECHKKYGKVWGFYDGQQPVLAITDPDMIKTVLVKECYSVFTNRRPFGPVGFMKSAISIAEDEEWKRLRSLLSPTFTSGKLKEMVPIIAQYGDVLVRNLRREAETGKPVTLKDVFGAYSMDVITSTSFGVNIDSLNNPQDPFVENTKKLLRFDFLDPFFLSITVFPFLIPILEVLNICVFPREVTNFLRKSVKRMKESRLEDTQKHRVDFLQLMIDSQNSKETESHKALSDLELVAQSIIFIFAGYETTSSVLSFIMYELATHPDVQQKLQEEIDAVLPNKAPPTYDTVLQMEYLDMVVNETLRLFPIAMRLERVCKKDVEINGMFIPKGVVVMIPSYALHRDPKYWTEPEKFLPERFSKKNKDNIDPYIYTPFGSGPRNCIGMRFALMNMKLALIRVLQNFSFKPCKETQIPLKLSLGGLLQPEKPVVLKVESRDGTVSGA
Another data set deals with rhinovirus A16. Nature of the data set: Antiviral activity against Human rhinovirus 16 infected in human HeLa Ohio cells assessed as inhibition of virus-induced cytopathic effect by CellTiter-Glo assay. It is filed as functional, organism-based. As to conditions: Rhinovirus A.
The target of data set [7] is T4, Cytochrome P450 2C19 (Homo sapiens, UniProt P33261). The data set is described as follows: Inhibition of CYP2C19. It is filed as ADME.
T4 sequence (P33261 whole entry): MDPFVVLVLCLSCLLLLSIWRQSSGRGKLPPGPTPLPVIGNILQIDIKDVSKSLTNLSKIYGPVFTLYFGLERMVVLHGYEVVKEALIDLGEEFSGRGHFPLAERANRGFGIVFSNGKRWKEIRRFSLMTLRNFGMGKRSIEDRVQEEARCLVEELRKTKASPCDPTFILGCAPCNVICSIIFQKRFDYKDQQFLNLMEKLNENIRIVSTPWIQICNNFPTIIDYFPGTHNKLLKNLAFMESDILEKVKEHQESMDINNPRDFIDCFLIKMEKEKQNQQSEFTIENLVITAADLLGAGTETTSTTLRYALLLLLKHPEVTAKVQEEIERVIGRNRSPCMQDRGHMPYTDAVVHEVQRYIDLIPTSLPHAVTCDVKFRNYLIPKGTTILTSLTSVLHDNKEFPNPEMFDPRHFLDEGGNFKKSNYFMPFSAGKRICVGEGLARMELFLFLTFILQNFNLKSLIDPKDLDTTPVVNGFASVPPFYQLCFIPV
Data set [8] concerns the target T5, Cytochrome P450 1A2 (Homo sapiens, UniProt P05177).
T5 sequence (P05177 whole entry): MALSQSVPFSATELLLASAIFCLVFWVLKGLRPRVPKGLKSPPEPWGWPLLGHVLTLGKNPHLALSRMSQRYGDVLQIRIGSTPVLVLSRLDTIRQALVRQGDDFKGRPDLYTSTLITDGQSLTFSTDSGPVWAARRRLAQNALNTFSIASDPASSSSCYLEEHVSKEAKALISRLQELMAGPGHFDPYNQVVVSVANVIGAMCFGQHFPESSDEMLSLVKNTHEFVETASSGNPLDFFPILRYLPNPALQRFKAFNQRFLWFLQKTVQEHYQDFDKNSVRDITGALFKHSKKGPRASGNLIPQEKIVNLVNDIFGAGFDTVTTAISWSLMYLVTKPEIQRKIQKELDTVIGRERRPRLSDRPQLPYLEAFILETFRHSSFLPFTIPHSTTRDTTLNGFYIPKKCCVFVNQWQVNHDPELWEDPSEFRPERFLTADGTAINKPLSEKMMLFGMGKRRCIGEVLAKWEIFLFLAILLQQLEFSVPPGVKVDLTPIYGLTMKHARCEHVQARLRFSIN
Nature of the data set: Inhibition of CYP1A2. The class given is ADME.

Data set [9] concerns the target T3, Cytochrome P450 3A4. The data set is described as follows: Time dependent inhibition of CYP3A4. It is filed as ADME.
The target of data set [10] is T6, Cytochrome P450 2C9 (Homo sapiens, UniProt P11712). Nature of the data set: Inhibition of CYP2C9. It is filed as ADME.
T6 sequence (P11712 whole entry): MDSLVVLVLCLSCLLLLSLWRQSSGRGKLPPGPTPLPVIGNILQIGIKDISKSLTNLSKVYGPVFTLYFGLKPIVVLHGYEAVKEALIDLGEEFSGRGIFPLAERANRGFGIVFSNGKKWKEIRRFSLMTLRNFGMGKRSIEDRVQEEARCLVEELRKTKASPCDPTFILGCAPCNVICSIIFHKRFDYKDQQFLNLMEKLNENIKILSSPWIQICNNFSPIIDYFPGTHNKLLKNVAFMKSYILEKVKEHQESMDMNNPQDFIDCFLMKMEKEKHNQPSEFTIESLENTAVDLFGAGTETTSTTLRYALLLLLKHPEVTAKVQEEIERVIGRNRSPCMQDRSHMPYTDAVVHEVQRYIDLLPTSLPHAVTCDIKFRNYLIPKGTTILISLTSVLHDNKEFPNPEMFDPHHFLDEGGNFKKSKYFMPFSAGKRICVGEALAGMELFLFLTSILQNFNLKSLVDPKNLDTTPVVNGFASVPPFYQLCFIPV
Data set [11] can be described thus: Unbound fraction in human plasma. It is filed as ADME, cell-free.
For data set [12], the target named is T5, Cytochrome P450 1A2. Nature of the data set: Time dependent inhibition of CYP1A2. It is filed as ADME.
A short description of data set [13]: Apparent permeability of compound by PAMPA. It is filed as ADME.
The nature of data set [14]: Chemical stability of compound assessed as half life. The class given is physicochemical.
A further data set deals with T7, PXR (NR1I2) (Homo sapiens, UniProt O75469).
T7 sequence (O75469 whole entry): T1 sequence (O75469 whole entry)
Nature of the data set: Activation of human PXR expressed in african green monkey CV1 cells transfected with pSG5-hPXRDATG and (ER6)3-tk-CAT reporter assessed as maximal activation relative to control. The class given is cell-based, CV-1.

Data set [15] in a line: Aqueous equilibrium solubility of the compound by shake-flask technique. The class given is physicochemical. As to conditions: buffer.
Data set [16] is described as follows: Unbound fraction in rat plasma. The class given is ADME, cell-free.
In data set [17] the target is T2, Cytochrome P450 2D6. The data set is described as follows: Time dependent inhibition of CYP2D6. It is filed as ADME.
A short description of data set [18]: Half life in rat at 2 mg/kg, iv. As to conditions: in vivo. It is filed as ADME, organism-based. Also on record: dose 2 mg/kg, route intravenous.
Data set [19] can be described thus: Lipophilicity, log D of the compound. It is filed as physicochemical. As to conditions: octanol/water.
Data set [20] has as its target T6, Cytochrome P450 2C9. Nature of the data set: Time dependent inhibition of CYP2C9. It is filed as ADME.
Data set [21] deals with T4, Cytochrome P450 2C19. The data set is described as follows: Time dependent inhibition of CYP2C19. The class given is ADME.
The next data set deals with rhinovirus A2. The data set is described as follows: Antiviral activity against Human rhinovirus 2 infected in human HeLa Ohio cells assessed as inhibition of virus-induced cytopathic effect by CellTiter-Glo assay. The class given is functional, organism-based. As to conditions: Rhinovirus A.
A short description of data set [22]: Oral bioavailability in rat. As to conditions: in vivo. The class given is ADME, organism-based.
A short description of data set [23]: Clearance in rat at 2 mg/kg, iv. As to conditions: in vivo. Also on record: dose 2 mg/kg, route intravenous. It is filed as ADME, organism-based.
In a further data set the test system is rhinovirus B14. Nature of the data set: Antiviral activity against Human rhinovirus 14 infected in human HeLa Ohio cells assessed as inhibition of virus-induced cytopathic effect by CellTiter-Glo assay. As to conditions: Rhinovirus B. It is filed as functional, organism-based.

Turning to `Cc1ccc(N2CC(COc3ccc(-c4noc(C)n4)cc3)C2)nn1`, a half-maximal response in data set [1] (EC50) required 31.6 µM. This compound also displayed a microsomal CLint in data set [2] of 26 µL/min/mg. The compound further registered a hepatocyte CLint in [3] of 5 µL/min/1e6 cells. In [4], the Vd was determined as 1.5 L/kg. Moreover, the IC50 was more than 10 µM against Cytochrome P450 2D6 [5]; more than 10 µM against Cytochrome P450 3A4 [6]; 0.0794 µM in the data set with rhinovirus A16; more than 10 µM on Cytochrome P450 2C19 [7]; more than 10 µM against Cytochrome P450 1A2 [8]; more than 50.1 µM against Cytochrome P450 3A4 [9]. The IC50 against Cytochrome P450 2C9 [10] is more than 10 µM; on Cytochrome P450 1A2 [12] it was more than 50.1 µM; against Cytochrome P450 2D6 [17] it was more than 50.1 µM; on Cytochrome P450 2C9 [20], more than 50.1 µM; at Cytochrome P450 2C19 [21] it was more than 50.1 µM; with rhinovirus A2, 0.0501 µM. Also, the free fraction (fraction unbound) in data set [11] was determined as 0.06; in data set [16] it was 0.05. For the same compound, the Papp in data set [13] was found to be 470 nm/s. Besides, the half-life was more than 200 h in [14] and 2.2 h in data set [18]. Also, at PXR (NR1I2), the Emax came to 19%. The compound further yielded a thermodynamic solubility in [15] of 125 µM (≈ 42.2 µg/mL). In [19], this compound gave a logD of 2.6. Also, in data set [22], the bioavailability was 60%. In [23], this compound returned a clearance of 0.54 L/h/kg.

Regarding `CCOC(=O)c1ccc(OCCC2CN(c3ccc(C)nn3)C2)cc1`, the IC50 in the data set with rhinovirus A16 is 0.0316 µM.

For the compound `CCOC(=O)c1ccc(OCCC2CN(c3ccc(C)nn3)CCO2)cc1` (stereo not drawn), the IC50 with rhinovirus A16 was 0.0631 µM.

`Cc1ccc(N2CCC(CCOc3ccc(S(C)(=O)=O)cc3)CC2)nn1`: the IC50 in the data set on rhinovirus A16 is 2 µM.

Consider `CCOC(=O)c1ccc(OCCC2CCN(c3ccc(C)nn3)CC2)cn1`, for which, in the data set on rhinovirus A16, the IC50 was 2.51 µM.

Consider `CCOC(=O)c1ccc(OCC2CCN(c3ccc(C)nn3)C2)cc1` (stereo not drawn), for which, in the data set on rhinovirus A16, the IC50 is 0.02 µM.

`CCOC(=O)c1ccc(CCN2CCN(c3ccc(C)nn3)CC2)cc1`: the IC50 in the data set with rhinovirus A16 is 0.0794 µM.

With `Cc1cc(CCCOc2c(C)cc(-c3noc(C(F)(F)F)n3)cc2C)on1` [PLECONARIL], the concentration for a half-maximal effect (EC50) in data set [1] is 0.251 µM. The same compound returned a microsomal CLint in data set [2] of 22 µL/min/mg. The compound further registered a hepatocyte CLint in [3] of 20 µL/min/1e6 cells. The IC50 with rhinovirus B14 is less than 0.1 µM; at Cytochrome P450 2D6 [5] it was 6.31 µM; in the data set on rhinovirus A16, 1 µM; against Cytochrome P450 2C19 [7] it was more than 10 µM; against Cytochrome P450 1A2 [8], more than 10 µM; on Cytochrome P450 2C9 [10] it was more than 10 µM. For the same compound, the IC50 against Cytochrome P450 1A2 [12] was more than 50.1 µM; on Cytochrome P450 2D6 [17] it was more than 50.1 µM; on Cytochrome P450 2C9 [20] it was more than 50.1 µM; on Cytochrome P450 2C19 [21] it was more than 50.1 µM; in the data set on rhinovirus A2, 0.1 µM. For the same compound, the fraction unbound in data set [11] is 0.0013; in [16], less than 0.002. Moreover, the Emax at PXR (NR1I2) worked out at 88%. In data set [15], this compound registered a solubility (thermodynamic) of less than 2 µM. This compound yielded a logD in data set [19] of more than 4.5.

In the case of `CCOC(=O)c1ccc(COCC2CCN(c3ccc(C)nn3)CC2)cc1`, in the data set with rhinovirus A16, the IC50 was 0.1 µM.

On to `CCOC(=O)c1ccc(COC2CN(c3ccc(C)nn3)C2)cc1`, for which, in the data set with rhinovirus A16, the IC50 was 0.0631 µM.

With `CCOC(=O)c1ccc(OCCC2CCN(c3ccc(C)nn3)CC2)cc1` [PIRODAVIR], the half-maximal inhibitory concentration (IC50) in the data set on rhinovirus B14 was less than 0.1 µM; in the data set with rhinovirus A16, 0.0631 µM; in the data set with rhinovirus A2, less than 0.1 µM.

For the compound `CCOC(=O)c1ccc(OCCC2(C#N)CCN(c3ccc(C)nn3)CC2)cc1`, in the data set on rhinovirus A16, the IC50 was 0.158 µM.

For `CCOC(=O)c1ccc(OCC2CN(c3ccc(C)nn3)C2)cc1`, the IC50 in the data set with rhinovirus A16 was 0.0631 µM.

As for `CCOC(=O)c1ccc(COC2CCN(c3ccc(C)nn3)CC2)cc1`, the IC50 in the data set with rhinovirus A16 is 0.0251 µM.

As to `CCOc1nc2ccc(OCCC3CCN(c4ccc(C)nn4)CC3)cn2n1`, in the data set on rhinovirus A16, the IC50 is 1.58 µM.

With `CCOc1nnc2cc(OCCC3CCN(c4ccc(C)nn4)CC3)ccn12`, the IC50 in the data set on rhinovirus A16 was 1.58 µM.

On to `Cc1ccc(N2CCC(CCOc3ccc([S+](C)[O-])cc3)CC2)nn1` (stereo not drawn), for which the IC50 with rhinovirus A16 is more than 31.6 µM.

Turning to `CCOC(=O)c1ccc(OCCC2CCN(c3ccc(C)nn3)CC2)nc1`, the IC50 with rhinovirus A16 was 0.0631 µM.
